Assays:
[1] = cmc-value (critical micellar concentration) of detergents, own measurements of the inventors; type: physicochemical; conditions: reflects solubility of detergent in water
Excerpt: The inventors of the submitted application have, namely, recognized that the low yield and the lacking reproducibility in the known methods is to be assigned to the second detergent. […] Further, it has to be taken care that the second detergent, in its final concentration, is above the critical micellar concentration. […] Above the cmc-value, the concentration of solved detergent-monomers is constant.
According to own measurements of the inventors, the cmc-values for alkyl-phosphorylcholine with an alkyl rest of C12, C13, C14 or C16 are 500, 150, 50 or 5 μM.

[2] = tested on: AO adenosine receptor; experiment: adenosine binding to refolded receptor by flow dialysis; set-up: species or system shark Squalus acanthias; conditions: refolded receptor in Alkyl(C16)phosphorylcholine/lipid micelles, after 48 hours at 4° C.
Excerpt: The cDNA of one of the following receptors is, in-frame, inserted into the vector pGEX2a-c-His: AO adenosine receptor from the shark Squalus acanthias, human beta-2-adrenergic receptor, human neuropeptide YY1 receptor, human neuropeptide YY2 receptor, human melanocortine-1 receptor, human oxytocin receptor. This vector contains downstream of the Tac-promotor the sequence encoding glutathione-S-transferase and a subsequent thrombin cleavage site, followed by a polylinker sequence and, finally, six histidine codons and a stop codon.
2 ml of 3% sarcosyl are resuspended in PBS and stored on ice. 2 ml of inclusion bodies obtained in example 2 are added and mixed and treated for one minute with sonication. Immediately afterwards, 16 ml of 0.1% detergent stock solution in PBS are added.
Thereafter, a dialysis against 2 l of PBS is performed for four hours, as well as adding of 1 mM of GSH/0.1 mM GSSG from a 100× stock solution in water.
The solution is then stored for 48 hours at 4° C., whereupon, by flow dialysis, the adenosine binding was detectable, i.e. the receptor was present in native form.

Row | cmc-value [1] [µM] | adenosine binding [2] | Compound
1 | 50 |  | CCCCCCCCCCCCCCOP(=O)([O-])OCC[N+](C)(C)C [alkyl-phosphorylcholine C14]
2 | 150 |  | CCCCCCCCCCCCCOP(=O)([O-])OCC[N+](C)(C)C [alkyl-phosphorylcholine C13]

More lines, now with the values behind:

Row | Compound | cmc-value [1] [µM] | adenosine binding [2]
3 | CCCCCCCCCCCCCCCCOP(=O)([O-])OCC[N+](C)(C)C [alkyl-phosphorylcholine C16] | 5 | 
4 | CCCCCCCCCCCCOP(=O)([O-])OCC[N+](C)(C)C [alkyl-phosphorylcholine C12] | 500 | 
5 | Nc1ncnc2c1ncn2[C@@H]1O[C@H](CO)[C@@H](O)[C@H]1O [adenosine] |  | detectable

Reference: patent US6939951B1, “Refolding of membrane proteins” (M-Phasys GmbH, priority 1999, dated 2005)
